Read-outs that look alike come from different tables or passages of the source.
Key:
[1] = system: cultured hippocampal neurons; experiment: iron (FeSO4) neurotoxicity; assay type: cell-based, rat
Excerpt: (§1) Dissociated embryonic rat hippocampal cell cultures were established and maintained. All procedures conformed with the NIH Guide for the Care and Use of Laboratory Animals and were approved by the University of Kentucky Animal Care and Use Committee. Cultures were maintained on a polyethyleneimine-coated substrate in plastic 35-mm dishes or 96 wall plates (for cell survival studies) or glass-bottom 35-mm dishes (for [Ca^2+ ]i imaging studies). The cell density was ^~ 70-100 cells/mm^2. Cells were maintained in Eagle's minimum essential medium supplemented 10% with fetal bovine serum and containing 20 mM sodium pyruvate. […] Aβ25-35 (Bachem, lot ZJ744) and Aβ1-40 (Bachem, lot ZK600) were stored in the lyophilized form, and stocks were prepared immediately before use by dissolving the peptide at a concentration of 1 mM in sterile distilled water. […] Glutamate and colchicine (Sigma) were prepared as 200-500x stocks in saline. Cytochalasins D and E (Sigma) and calcium ionophore 4-bromo-A23187 (Calbiochem) were prepared as 500x stocks in dimethyl sulfoxide. Vitamin E (α-tocopherol; Sigma) was prepared as a 500x stock in ethanol. Nordihydroguaiaretic acid and FeSo4 were prepared as 500x stocks in sterile water.
(§2) Neuronal survival was quantified by counting viable neurons in the same microscope fields (10x objective) immediately before experimental treatment and at time points after treatment. In addition, cells were grown in 96-well plates and Alamar blue fluorescence (Alamar Laboratories)was quantified by using a fluorescence plate reader. Alamar Blue is a non-fluorescent substrate that, after reduction by cell metabolites, becomes fluorescent. Usually neurons that died in the time intervals (20-48 h) between examination points were absent. Viability of the remaining neurons was assessed by morphological criteria. Neutrons with intact neurites of uniform diameter and a soma with a smooth, round appearance were considered viable, whereas neurons with fragmented neurites and a vacuolated or swollen soma were considered nonviable. Survival values were expressed as percentages of the initial number of neurons present before experimental treatment. Statistical comparisons were made using ANOVA and Scheffe post-hoc tests for pairwise comparisons.
FIG. 8. Cultures were preincubated 1 h in the presence of 0.5% dimethylsulfoxide (control), 100 nM cytochalasin D, 50 μg/ml vitamin E (VitE), or 2 μM nordihydroguairetic acid (NDGA). Cultures were then exposed for 6 h to the indicated concentrations of FeSO4 and neuronal survival was quantified. Values represent the means and SEM of determinations made in four separate cultures. *P<0.001 compared to value for cultures exposed to 100 μM FeSO4 alone.

[2] = system: hippocampal region CA3 neurons; experiment: kainate lesion paradigm, CA3 neurons; assay type: in vivo, rat (Sprague-Dawley)
Protocol: A kainate lesion paradigm was employed in adult rats to determine whether cytochalasin D was also excitoprotective. Twenty-four adult male Sprague-Dawley rats (250-300 g) were divided into the indicated experimental groups (4-5 rats/group). Kainate (0.5 µg/[…]) was injected stereotaxically into region CA1 of the right hippocampus of anesthetized rats. Cytochalasin D (the indicated concentration in 1 μl of saline-1% DMSO) or vehicle was infused into the right lateral ventricle during a 5-10 min period immediately following kainate injection. Rats were killed 48 hr later and perfused transcardially with 4% paraformaldehyde. Brain sections (30 μm) were stained with cresyl violet and stained neurons in three adjacent 40X microscope fields of hippocampal region CA3 were counted (5 sections/rat) . The neuronal counts were performed in sections removed approximately 200-400 μm from the injection site. This method results in highly reproducible, 75-99%, neuronal loss in the CA3 region in over 99% of the rats injected with kainate (calculations based on 302 rats receiving intra-hippocampal kainate). […] Approximately 80% of the neurons were killed by kainate in control animals receiving an intracerebroventricular infusion of saline immediately following kainate administration.
Cresyl violet-stained coronal sections from brains of rats administered kainate alone (left) of kainate plus cytochalasin D (CyD; right). […] Lower micrographs are high magnification of a region of CA3 from the sections shown in the upper panels.
FIG. 3. Counts of viable neurons were made in region CA3 of Sham-operated rats, and rats infused intraventricularly with vehicle or increasing concentration of cytochalasin D […] unilateral kainate injection into region CA1 of the hippocampus. Neuronal survival in the kainate injected hippocampus is expressed as a percentage of neurons in the contralateral hippocampus. Values represent the mean and SEM (4 or 5 rats/group). *p<0.01 compared to value for sham rats. **p<0.01 compared to value for vehicle-infused rats. (ANOVA with Scheffe's post-hoc test).

[3] = system: neuronal [Ca^2+]i in cultured hippocampal neurons; experiment: measurement of [Ca^2+]i, fura-2 imaging; assay type: cell-based, rat; details: 10 μM, 3 h pretreatment; 50 μM glutamate
Excerpt: as §1
Fluorescence ratio imaging of the Ca^2+ indicator dye fura-2 was used to quantify [Ca^2+ ]i in neuronal somata. Cells were incubated for 30-40 min in the presence of 2 μM acetoxymethyl ester form of the [Ca^2+ ]i indicator dye fura-2 and were then washed twice (2 ml/wash) with fresh medium and allowed to incubate at least 40 min before imaging. Immediately before imaging, the normal culture medium was replaced with Hanks' balanced saline solution (GIBCO) containing 10 mM HEPES buffer and 10 mM of glucose. Cells were imaged using a Zeiss Attofluor system with a oil objective or Quantex system with a 40x oil objective. The ratio of the fluorescence emission using two different excitation wavelengths (334 and 380 nm) was used to determine [Ca^2+ ]i. The system was calibrated using solutions containing either no Ca^2+ or a saturating level of Ca^2+ (1 mM) according to the following formula: [Ca^2+ ]i =KD [(R-Rmin) / (Rmax -R)] (F0 /FS). Values represent the average [Ca^2+ ]i in the neuronal cell body. Experimental treatments were added to the bathing medium by dilution from 100-500x stocks.
(A) Cultures were pretreated for 1 hr with 100 nM cytochalasin D and then [Ca^2+ ]i in neurons was monitored prior to and following exposure to 50 μM glutamate. The records represent the mean [Ca^2+ ]i in 8-12 neurons. Similar results were obtained in 4 separate experiments.
(B) Aβ-induced potentiation of [Ca^2+ ]i response to glutamate is abrogated by cytochalasin D. Cultures were left untreated (Control) or were exposed to 20 μM Aβ25-35 for 6 hr or cytochalasin D plus Aβ25-35 for 6 hr. The [Ca^2+ ]i was then monitored prior to following exposure to 50 μM glutamate. Values represent the means of 8-14 neurons. Similar results were obtained in 3 separate experiments.
(C) Cultures were pretreated for 3 hr with 50 μM Aβ alone or in combination with 100 nM cytochalasin D. The [Ca^2+ ]i in neurons was then monitored prior to and following exposure to 50 mM KCl. Values represent the mean of 14-23 neurons. Similar results were obtained in a separate experiment.
(D) Cultures were pretreated for 1 h with 100 nM cytochalasin D. The [Ca^2+ ]i in neurons was measured immediately prior to, and at 5 min following, exposure to the indicated concentrations of glutamate. Values represent the means and SEM of determinations made in 17-26 neurons. *P<0.05 (10 μM glutamate), P<0.02 (50 μM glutamate), P<0.01 (100 μAM glutamate) compared to corresponding control values.
FIG. 9. Cultures were pretreated for 3 h with vehicle (control) or 10 μM jasplakinolide. The [Ca^2+ ]i was monitored prior to and following exposure to 50 μM glutamate. Values represent the mean of determinations made in 10-12 neurons. Similar results were obtained in two additional experiments.
FIG. 10. […]

[4] = system: cultured hippocampal neurons; experiment: cells; assay type: cell-based, rat
[5] = system: cultured hippocampal neurons; assay type: cell-based, rat
Excerpt: as §1, §2
FIG. 12. (A) Cultures were pretreated for 1 h with vehicle 0.2% dimethyl sulfoxide (Control) or 100 nM cytochalasin D (CyD) and were exposed to the indicated concentrations of Aβ25-35 for 48 h. Data are mean and SEM values of determinations made in four separate cultures.
(B) Cultures were pretreated for 1 h with the indicated concentrations of cytochalasin D and then exposed to 50 μM Aβ25-35; parallel cultures were exposed to cytochalasin D alone (Control) . Data are mean and SEM values of determinations made in four separate cultures.
FIG. 14. Cultures were exposed to 100 nM colchicine; 50 μM Aβ; 100 nM colchicine plus 50 μM Aβ; 100 nM cytochalasin E (CyE) plus Aβ (colchicine and cytochalasin E were added 1 h before Aβ); neuronal survival was assessed 48 h later. Data are mean and SEM values of determinations made in four separate cultures. *p<0.01, compared with values for control or colchicine alone. **p<0.01, compared with value for cultures exposed to Aβ alone.

[6] = system: cultured hippocampal neurons; experiment: cells; assay type: cell-based, rat; remark: listed apart in the source
Excerpt: as §1, §2
FIG. 5. […] Cytochalasin D was added to cultures 30 min prior to exposure to glutamate, and control cultures were exposed to 0.2% dimethylsulfoxide.
(A) Neuronal survival was quantified in cultures that had been pretreated with the indicated concentrations of cytochalasin D and then exposed to 50 μM glutamate for 20 h. Values represent the means and SEM of determinations made in four separate cultures. […] Pairwise statistical comparisons of cytochalasin-treated cultures with the control survival (Scheffe's test) indicated 1 nM cytochalasin D, P<0.05; 10 nM cytochalasin D, P<0.001; 100 and 1000 nM cytochalasin D, P<0.0001.
(B) Neuronal survival was quantified in cultures that had been pretreated with either vehicle (control) or 100 nM cytochalasin D and then exposed to the indicated concentrations of glutamate for 20 h. Values represent the means and SEM of determinations made in four separate cultures. […] ANOVA with Scheffe's post hoc test.
FIG. 6. (A) Cultures were pretreated with 100 nM cytochalasin D (CyD), 100 nM cytochalasin E (CyE), or 100 nM colchicine (Colch). Cultures were then exposed to 50 μM glutamate for 20 h. Values for neuronal survival represent the means and SEM of determinations made in four separate cultures. *P<0.001 compared to control value. **P<0.001 compared to value for cultures exposed to glutamate alone.
[…] Values represent the means and SEM of determinations made in four separate cultures. *P<0.01 compared to value for cultures exposed to 20 μM glutamate alone. **P<0.05 compared to cultures exposed to 50 μM glutamate alone.

[7] = system: cultured hippocampal neurons; experiment: cells; assay type: cell-based, rat; details: Rattus norvegicus, Hippocampal neuron
Excerpt: as §1, §2
Values represent the means and SEM of 4 separate cultures (cell counts) or 4 culture wells (Alamar blue assay). ^a p<0.05 compared to control value. ^b p<0.001 compound to control value. ^c p<0.01 compared to value for glutamate-treated cultures. ^d p<0.005 compared to value for glutamate-treated cultures. ^e p<0.001 compared to value for Aβ-treated cultures. ^f p<0.001 compared to value for cultures treated with 20 μM glutamate. ^g p<0.001 compared to cultures treated with 50 μM Aβ+20 μM glutamate. n.d. not determined.

[8] = read-out: Neuron Survival (% of control), Alamar Blue Assay

O=S(=O)([O-])[O-].[Fe+2] [FeSo4] was tested, and the loss of neurons ([1]; FeSO4 10-100 nM as printed, 6 h) was “concentration-dependent loss of neurons”.

In the case of C=C(C)[C@H]1CN[C@H](C(=O)O)[C@H]1CC(=O)O [Kainate, kainate, reference compound], the “neurons killed by kainate” value ([2]; control animals receiving i.c.v. saline, 48 hr) is reported as “Approximately 80%” and the “neuronal loss in the CA3 region” value ([2]; intrahippocampal kainate, over 99% of rats (302 rats)) is reported as 75-99%.

With CC1=CC(C)CC(C)OC(=O)CC(c2ccc(O)cc2)NC(=O)C(Cc2c(Br)[nH]c3ccccc23)N(C)C(=O)C(C)NC(=O)C(C)C1 (centres unmarked) [Jasplakinolide, jasplakinolide, reference compound] the “effect on glutamate-induced elevation of [Ca^2+]i” value [3] was “potentiated” and the “effect on glutamate neurotoxicity” value ([4]; preincubated 3 h, 10 μM (FIG. 6B legend: 1 h, 5 μM)) was “significantly potentiated”.

With CC(Cc1ccc(O)c(O)c1)C(C)Cc1ccc(O)c(O)c1 (centres unmarked) [nordihydro-guaiaretic acid, Nordihydroguaiaretic acid] the “effect on neurotoxicity of iron” value ([1]; 50 μg/ml vitamin E or 2 μM NDGA, 1 h preincubation) was “completely blocked”.

C[C@H]1C/C=C/[C@H]2[C@@H]3O[C@]3(C)[C@@H](C)[C@H]3[C@H](Cc4ccccc4)NC(=O)[C@]32OC(=O)O/C=C/[C@@](C)(O)C1=O [Cytochalasin E, cytochalasin E] was tested, and the “effect on Aβ neurotoxicity” value ([5]; 100 nM, added 1 h before 50 μM Aβ, 48 h) was “attenuated Aβ neurotoxicity significantly”, the “protection against toxicity of Aβ” value ([5]; 10-100 nM) was “protected” and the “protection against glutamate toxicity” value ([6]; 100 nM, 50 μM glutamate, 20 h) was “significant protection against glutamate toxicity”. The “protection against toxicity of glutamate” value ([6]; 10-100 nM) was “protected”.

For N[C@@H](CCC(=O)O)C(=O)O [Glutamate, glutamate, reference compound], the CC50 ([6]; Rattus norvegicus, Hippocampal neuron, 20 h, read-out: ED50 for reduction in neuronal survival) was ~35 µM, the cytotoxicity at 100 µM ([6]; Rattus norvegicus, Hippocampal neuron, 20 h, read-out: maximum killing of neurons) was > 80% and the cytotoxicity at 50 µM ([6]; Rattus norvegicus, Hippocampal neuron, 20 h, read-out: neurons killed) was > 70%. The viability at 100 µM ([4]; Rattus norvegicus, Hippocampal neuron, 24 h, read-out: neuronal survival in cultures exposed to glutamate) was < 20%, the viability at 20 µM [7, 8] was 74 ± 0.7% and the viability at 100 µM [7, 8] was 18 ± 5.4%. The viability at 100 µM ([7]; read-out: Neuron Survival (% of control), Cell Counts) was 15 ± 3.3%.

— patent US5830910A (priority 1995, dated 1998)
